The target in one series is T1, Human NOD2 (Homo sapiens, UniProt Q9HC29).
T1 construct: expressed in transfected cells; host or cells: HEK293
Kind of series: Human NLR antagonist screening, NF-κB SEAP reporter in HEK293 cells. The format is cell-based. To be noted: antagonist mode, Ami 1 μM, +L18-MDP 50 ng/mL, No Sample 18, Control− 1. How it is done:
Toll-Like Receptor (TLR), NOD-Like Receptor (NLR) and C-Type Lectin Receptor (CLR) stimulation were tested by assessing NF-κB activation in HEK293 cells expressing a given TLR, NLR or CLR. The activity of the test articles was tested at one concentration and compared to control ligands. These steps were performed in triplicate. hNOD2: L18-MDP at 100 ng/mL Antagonist: 50 ng/mL. In a 96-well plate (200 μL total volume) containing the appropriate cells (50,000-75,000 cells/well), 20 μL of the test article or the positive control ligand was added to the wells. For the antagonist assay, the test article was incubated with the cells, at 37° C. with 5% CO2, for 30 minutes prior to the addition of the positive control ligand to the wells. The media added to the wells was designed for the detection of NF-κB induced SEAP expression. After a 16-24 hr incubation the optical density (OD) was read at 650 nm on a Molecular Devices SpectraMax 340PC absorbance detector. Fold induction (ratio of average induced value to average non-induced value) was determined for each TLR, NOD1, NOD2, Dectin-1a, Dectin-1b.

The next series concerns the target T2, human MDA-5 (Homo sapiens, UniProt Q9BYX4).
T2 construct: expressed in transfected cells; host or cells: HEK293
T2 sequence (Q9BYX4 1-1025): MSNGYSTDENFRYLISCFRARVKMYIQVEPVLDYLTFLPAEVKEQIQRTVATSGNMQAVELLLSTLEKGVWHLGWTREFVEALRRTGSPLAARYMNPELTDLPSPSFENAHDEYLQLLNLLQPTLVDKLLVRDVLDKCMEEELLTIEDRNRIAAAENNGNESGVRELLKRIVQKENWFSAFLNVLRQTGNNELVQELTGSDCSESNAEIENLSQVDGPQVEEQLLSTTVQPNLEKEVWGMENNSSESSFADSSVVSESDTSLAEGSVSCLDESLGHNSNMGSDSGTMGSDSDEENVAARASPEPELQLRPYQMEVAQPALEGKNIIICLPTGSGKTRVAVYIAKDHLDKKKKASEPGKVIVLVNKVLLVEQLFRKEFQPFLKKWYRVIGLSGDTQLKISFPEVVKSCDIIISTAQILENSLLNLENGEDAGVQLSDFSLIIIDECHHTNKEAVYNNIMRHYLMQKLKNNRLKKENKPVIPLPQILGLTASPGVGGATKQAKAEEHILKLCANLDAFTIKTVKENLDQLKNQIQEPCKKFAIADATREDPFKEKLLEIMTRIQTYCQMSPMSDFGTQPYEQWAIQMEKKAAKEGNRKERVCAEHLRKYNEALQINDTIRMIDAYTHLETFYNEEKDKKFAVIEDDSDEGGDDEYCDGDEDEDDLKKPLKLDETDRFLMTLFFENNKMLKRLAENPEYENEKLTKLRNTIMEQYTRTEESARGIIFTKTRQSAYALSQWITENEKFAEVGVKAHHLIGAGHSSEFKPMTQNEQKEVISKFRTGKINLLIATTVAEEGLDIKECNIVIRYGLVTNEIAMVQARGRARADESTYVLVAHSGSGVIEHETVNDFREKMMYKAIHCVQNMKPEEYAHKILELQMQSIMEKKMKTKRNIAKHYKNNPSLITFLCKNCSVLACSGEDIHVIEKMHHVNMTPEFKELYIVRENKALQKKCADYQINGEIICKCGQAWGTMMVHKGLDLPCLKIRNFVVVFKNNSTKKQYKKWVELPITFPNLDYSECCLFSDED
Kind of series: Human RLR antagonist screening, IRF3 luciferase reporter in HEK293 cells. To be noted: antagonist mode, Ami 1 μM. It counts as cell-based. How it is done:
RIG-I and MDA-5 stimulation were tested by assessing IRF3 activation in HEK293 cells expressing human RIG-I or MDA-5 genes. The activity of the test articles was tested on human RIG-I and MDA-5 expressing cells as a potential agonist or antagonist. The test articles were evaluated at one concentration and compared to control ligands. This step was performed in triplicate. The results are provided as Relative Luminescence Units (RLUs). RIG-I/MDA-5: Poly(I:C)/LyoVec at 1 μg/mL Antagonist: 500 ng/mL. 5′ppp-dsRNA/LyoVec at 1 μg/mL Antagonist: 500 ng/mL. hIFNα at 1000 IU/mL. Antagonist: 100 IU/mL. In a 96-well plate (200 μL total volume) containing the appropriate cells (25,000-50,000 cells/well), 20 μL of the test article or of the positive control ligand was added to the wells. For the antagonist assay, the test article was incubated with the cells, at 37° C. with 5% CO2, for 30 minutes prior to the addition of the positive control ligand to the wells. After 20 hour incubation, activation of the IRF pathway was monitored using a luciferase detection assay. Luciferase activity was assayed in triplicate from the supernatant of the induced cells, and the relative luminescence units (RLUs) are detected by a Promega GloMax Luminometer. Fold induction (ratio of average induced value to average non-induced value).
(A reporter such as luciferase makes a cellular process visible.)

T1 sequence (Q9HC29 whole entry): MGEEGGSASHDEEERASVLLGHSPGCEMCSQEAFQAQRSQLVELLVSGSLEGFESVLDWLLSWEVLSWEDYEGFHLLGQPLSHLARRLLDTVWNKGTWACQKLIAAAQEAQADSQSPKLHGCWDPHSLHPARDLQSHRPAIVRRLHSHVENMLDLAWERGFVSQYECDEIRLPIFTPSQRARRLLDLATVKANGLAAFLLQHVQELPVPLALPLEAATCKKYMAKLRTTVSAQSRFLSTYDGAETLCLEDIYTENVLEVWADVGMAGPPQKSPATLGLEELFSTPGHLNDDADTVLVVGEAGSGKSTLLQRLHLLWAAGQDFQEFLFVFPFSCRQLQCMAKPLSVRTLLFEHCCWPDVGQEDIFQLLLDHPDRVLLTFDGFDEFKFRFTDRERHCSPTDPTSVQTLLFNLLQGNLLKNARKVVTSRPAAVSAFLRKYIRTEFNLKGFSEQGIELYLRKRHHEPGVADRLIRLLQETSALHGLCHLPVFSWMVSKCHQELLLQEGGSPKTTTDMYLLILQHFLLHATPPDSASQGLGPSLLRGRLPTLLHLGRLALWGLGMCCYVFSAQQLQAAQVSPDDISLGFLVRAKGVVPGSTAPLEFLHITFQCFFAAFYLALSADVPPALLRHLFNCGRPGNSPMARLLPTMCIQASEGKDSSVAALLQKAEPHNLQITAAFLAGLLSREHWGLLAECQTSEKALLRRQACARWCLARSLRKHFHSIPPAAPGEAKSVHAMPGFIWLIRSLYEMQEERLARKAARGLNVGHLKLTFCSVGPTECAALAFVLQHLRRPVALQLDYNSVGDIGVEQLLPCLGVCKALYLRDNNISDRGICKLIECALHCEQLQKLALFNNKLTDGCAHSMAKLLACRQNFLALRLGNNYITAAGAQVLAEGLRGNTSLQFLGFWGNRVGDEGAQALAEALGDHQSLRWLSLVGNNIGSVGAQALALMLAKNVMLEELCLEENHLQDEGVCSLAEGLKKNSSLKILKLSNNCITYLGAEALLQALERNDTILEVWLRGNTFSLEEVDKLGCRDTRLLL

As for `CN(C)CCC=C1c2ccccc2CCc2ccccc21` [Amitriptyline], the “Fold Induction” value at Human NOD2 is on record as “slight inhibitory effect”; on Human NOD2 (listed as Ami), 17. Moreover, the “Fold induction (ratio of average induced value to average non-induced value)” value on human MDA-5 (5′ppp-dsRNA/LyoVec 500 ng/mL, No Sample 1, Control− 1) is on record as 1; on human MDA-5 (Poly(I:C)/LyoVec 500 ng/mL, No Sample 9, Control− 1), 10; at human MDA-5 (hIFNα 100 IU/mL, No Sample 255, Control− 1, listed as Ami), 192.
